Measurements taken from patent US20210078972A1, “QUINOLINE OR QUINAZOLINE COMPOUND AND APPLICATION THEREOF” (HAIHE BIOPHARMA CO., LTD., priority 2018, published 2021).

Tests used:
[1] = target: T1, AXL kinase domain recombinant protein (Homo sapiens, UniProt P30530); test: AXL kinase inhibition, ELISA; type: biochemical; conditions: ATP 5 μM
T1 construct: the AXL kinase domain recombinant protein (eurofins, 14-512); purchased eurofins 14-512
T1 sequence (P30530 536-807 limits assumed): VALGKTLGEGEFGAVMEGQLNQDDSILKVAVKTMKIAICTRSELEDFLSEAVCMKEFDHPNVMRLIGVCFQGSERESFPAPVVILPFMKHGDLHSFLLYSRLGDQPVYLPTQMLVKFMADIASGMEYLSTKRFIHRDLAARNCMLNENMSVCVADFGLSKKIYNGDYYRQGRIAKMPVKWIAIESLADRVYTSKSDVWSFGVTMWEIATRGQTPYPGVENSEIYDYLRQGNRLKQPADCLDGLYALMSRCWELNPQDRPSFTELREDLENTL
Method: Detection of the activity of kinase: Enzyme-linked immunosorbent assay (ELISA) technology was used to detect the inhibitory activities of the compounds against the kinase. […] After the liquid in the well was discarded, the plate was washed three times with T-PBS (PBS containing 0.1% Tween-20), 200 μL T-PBS per well, 5 minutes for each time. The enzyme label plate was dried in an oven at 37° C. for 1-2 hours. To each well was added 50 μL of ATP solution diluted with reaction buffer (50 mM HEPES, pH 7.4, 50 mM MgCl2, 0.5 mM MnCl2, 0.2 mM Na3VO4, 1 mM DTT) with a final concentration of 5 μM. […] Two wells with no enzyme for control are required for each experiment. The plate was incubated on a shaker (100 rpm) at 37° C. and reacted for 1 hour. The plate was washed three times with T-PBS. 100 μ/well of primary antibody PY99 dilution was added and the plate was reacted in a shaker at 37° C. for 0.5 hour. The plate was washed three times with T-PBS. 100 μ/well of secondary antibody horseradish peroxidase-labeled goat anti-mouse IgG dilution was added and the plate was reacted in a shaker at 37° C. for 0.5 hour. The plate was washed three times with T-PBS. 2 mg/ml of OPD color solution was added with 100 μ/well (diluted with 0.1 M citric acid-sodium citrate buffer (pH=5.4) containing 0.03% H2O2), and the plate was reacted at 25° C. in the dark for 1-10 minutes. (Ultrasound is required for the dissolution of OPD, and the color solution needs to be prepared for immediate use). 50 μ/well of 2 M H2SO4 was added to stop the reaction, and the wavelength-adjustable enzyme-labeling instrument SPECTRA MAX 190 was used to read the data at a wavelength of 490 nm.
The inhibition rate of the sample was obtained by the following formula: […]
The IC50 values were obtained by regression with the four-parameter method using the software attached to the enzyme-labeling instrument.

Flt3 kinase = target: T2, Flt3 kinase (Homo sapiens, UniProt P36888); test: Flt3 kinase inhibition, Z'-LYTE FRET; type: biochemical; conditions: ATP 500 μM
T2 construct: purchased life PV6253
T2 sequence (P36888 27-993): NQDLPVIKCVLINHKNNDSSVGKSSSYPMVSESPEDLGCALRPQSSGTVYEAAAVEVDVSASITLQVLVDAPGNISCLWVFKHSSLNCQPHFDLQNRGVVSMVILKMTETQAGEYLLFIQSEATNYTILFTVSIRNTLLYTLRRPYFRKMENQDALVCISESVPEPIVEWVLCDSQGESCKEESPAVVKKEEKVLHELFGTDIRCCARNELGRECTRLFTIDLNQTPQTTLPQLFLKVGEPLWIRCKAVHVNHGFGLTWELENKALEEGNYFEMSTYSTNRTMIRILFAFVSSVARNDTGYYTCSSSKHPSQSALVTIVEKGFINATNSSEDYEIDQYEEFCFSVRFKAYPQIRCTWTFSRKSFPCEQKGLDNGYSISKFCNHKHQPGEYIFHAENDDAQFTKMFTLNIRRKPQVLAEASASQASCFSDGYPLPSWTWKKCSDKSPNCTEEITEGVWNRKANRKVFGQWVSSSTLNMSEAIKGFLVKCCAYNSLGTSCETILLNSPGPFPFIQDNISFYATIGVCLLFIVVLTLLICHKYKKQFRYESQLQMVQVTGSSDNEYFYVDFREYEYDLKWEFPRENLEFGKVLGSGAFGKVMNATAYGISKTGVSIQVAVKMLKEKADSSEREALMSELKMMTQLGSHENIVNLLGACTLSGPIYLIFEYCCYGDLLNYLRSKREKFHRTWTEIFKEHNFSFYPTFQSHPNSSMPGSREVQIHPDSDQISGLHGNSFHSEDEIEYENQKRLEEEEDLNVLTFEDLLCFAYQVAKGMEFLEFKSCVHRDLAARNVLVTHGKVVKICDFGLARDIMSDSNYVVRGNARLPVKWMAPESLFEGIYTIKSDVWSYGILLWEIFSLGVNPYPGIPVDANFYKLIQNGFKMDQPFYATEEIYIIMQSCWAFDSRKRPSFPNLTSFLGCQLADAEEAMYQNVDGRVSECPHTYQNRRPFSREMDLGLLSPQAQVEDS
Source text: Detection of the activity of kinase: the inhibitory activities of the compounds against Flt3 kinase (life, PV6253) were detected through a second-order reaction by the Z′-LYTE™ technology (detected by fluorescence, enzyme-coupled form, based on the difference in a sensitivity of phosphorylated and non-phosphorylated polypeptides to proteolytic cleavage), based on the principle of fluorescence resonance energy transfer (FRET), using Z′-LYTE™ FRET peptide substrate (Z′-LYTE™ Tyrosine 2 Peptide Substrate, Invitrogen, PV3191).
Enzymatic reaction: To a 384-well plate were added 5 μL of enzyme-substrate system (50 mM HEPES, pH 7.5, 0.01% BRU-35, 10 mM MgC2, 1 mM EGTA), 2.5 μL of a compound (concentration gradient) and 2.5 μL of a mixed solution of ATP (a final concentration of a substrate Z′-LYTE™ Tyrosine 2 Peptide Substrate was 2 μM, and a final concentration of ATP was 500 μM), and then the plate was incubated at 37° C. in the dark for 1 h.
Detecting reaction: 5 μL of Development Solution (1:64 dilution) was added to each well and the plate was incubated at 37° C. in the dark for 1 h, then 5 μL of Stop Reagent was added.
The data analysis method is as follows:
Phosphorylation ratio=1−{(emission ratio×F100%−C100%)/[C0%−C100%+emission ratio×(F100%−F0%)]}×100;
Inhibition rate=100×(1−compound phosphorylation ratio/negative control phosphorylation ratio).
The IC50 values were calculated by GraphPad Prism software.

SMILES	IC50 [1] [nM]	IC50 (Flt3 kinase) [nM]
COc1cc2c(Oc3ccc(NC(=O)c4c(C)n(C)c5ccc(OC(F)(F)F)cc5c4=O)cc3F)ccnc2cc1OCCCN1CCOCC1 [CCB-310, N-(3-fluoro-4-((6-methoxy-7-(3-morpholinopropoxy)quinolin-4-yl)oxy)phenyl)-1,2-dimethyl-4-oxo-6-(trifluoromethoxy)-1,4-dihydroquinoline-3-carboxamide]	1.8	9.5
COCCOc1cc2ncnc(Oc3ccc(NC(=O)c4c(C)n(C)c5ccc(OC(F)(F)F)cc5c4=O)cc3F)c2cc1OCCOC [TL-197, N-(4-((6,7-bis(2-methoxyethoxy)quinazolin-4-yl)oxy)-3-fluorophenyl)-1,2-dimethyl-4-oxo-6-(trifluoromethoxy)-1,4-dihydroquinoline-3-carboxamide]	4.2	4.7
COc1cc2ncnc(Oc3ccc(NC(=O)c4c(C)n(C)c5ccc(OC(F)(F)F)cc5c4=O)cc3F)c2cc1OC [TL-198, N-(4-((6,7-dimethoxyquinazolin-4-yl)oxy)-3-fluorophenyl)-1,2-dimethyl-4-oxo-6-(trifluoromethoxy)-1,4-dihydroquinoline-3-carboxamide]	2.1	2.3
COCCCOc1cc2c(Oc3ccc(NC(=O)c4c(C)n(C)c5ccc(OC(F)(F)F)cc5c4=O)cc3F)ncnc2cc1OC [TL-199, N-(3-fluoro-4-((7-methoxy-6-(3-methoxypropoxy)quinazolin-4-yl)oxy)phenyl)-1,2-dimethyl-4-oxo-6-(trifluoromethoxy)-1,4-dihydroquinoline-3-carboxamide]	1.8	25.8
COCCCCOc1cc2ncnc(Oc3ccc(NC(=O)c4c(C)n(C)c5ccc(OC(F)(F)F)cc5c4=O)cc3F)c2cc1OC [TL-204, N-(3-fluoro-4-((6-methoxy-7-(4-methoxybutoxy)quinazolin-4-yl)oxy)phenyl)-1,2-dimethyl-4-oxo-6-(trifluoromethoxy)-1,4-dihydroquinoline-3-carboxamide]	1.6	11.2
COc1cc2c(Oc3ccc(NC(=O)c4c(C)n(C)c5ccc(OC(F)(F)F)cc5c4=O)cc3F)ncnc2cc1OCCN1CCOCC1 [TL-209, N-(3-fluoro-4-((6-methoxy-7-(2-morpholinoethoxy)quinazolin-4-yl)oxy)phenyl)-1,2-dimethyl-4-ox o-6-(trifluoromethoxy)-1,4-dihydroquinoline-3-carboxamide]	2	9.2
COc1cc2c(Oc3ccc(NC(=O)c4c(C)n(C)c5ccc(OC(F)(F)F)cc5c4=O)cc3F)ncnc2cc1OCCCN1CCCC1 [TL-212, N-(3-fluoro-4-((6-methoxy-7-(3-(pyrrolidin-1-yl)propoxy)quinazolin-4-yl)oxy)phenyl)-1,2-dimethy 1-4-oxo-6-(trifluoromethoxy)-1,4-dihydroquinoline-3-carboxamide]	1.5	5.2
COc1cc2c(Oc3ccc(NC(=O)c4c(C)n(C)c5ccc(OC(F)(F)F)cc5c4=O)cc3F)ncnc2cc1OCCN1CCCCC1 [TL-213, N-(3-fluoro-4-((6-methoxy-7-(2-(piperidin-1-yl)ethoxy)quinazolin-4-yl)oxy)phenyl)-1,2-dimethyl-4-oxo-6-(trifluoromethoxy)-1,4-dihydroquinoline-3-carboxamide]	2.2	6.4
